Laboratory results: patent US8822451B2, “Modulators of ATP-binding cassette transporters” (Vertex Pharmaceuticals Incorporated, priority 2005, dated 2014)

Molecular target: T1, […]F508-CFTR (Homo sapiens, UniProt P13569, DEL508-508)
T1 construct: expressed in transfected cells
Assay: Assay results of Table 3: ΔF508-CFTR modulation, membrane potential optical assay (assay format not stated)
Assay type: cell-based
Conditions: NIH3T3 mouse fibroblasts stably expressing […]F508-CFTR (optical assays); for Efficacy: efficacy range; for EC50: potency range
Description: A. Membrane Potential Optical Methods for Assaying […]F508-CFTR Modulation Properties of Compounds
The optical membrane potential assay utilized voltage-sensitive FRET sensors described by Gonzalez and Tsien (See, Gonzalez, J. E. and R. Y. Tsien (1995) “Voltage sensing by fluorescence resonance energy transfer in single cells” Biophys J 69(4): 1272-80, and Gonzalez, J. E. and R. Y. Tsien (1997) “Improved indicators of cell membrane potential that use fluorescence resonance energy transfer” Chem Biol 4(4): 269-77) in combination with instrumentation for measuring fluorescence changes such as the Voltage/Ion Probe Reader (VIPR) (See, Gonzalez, J. E., K. Oades, et al. (1999) “Cell-based assays and instrumentation for screening ion-channel targets” Drug Discov Today 4(9): 431-439).
These voltage sensitive assays are based on the change in fluorescence resonant energy transfer (FRET) between the membrane-soluble, voltage-sensitive dye, DiSBAC2(3), and a fluorescent phospholipid, CC2-DMPE, which is attached to the outer leaflet of the plasma membrane and acts as a FRET donor. Changes in membrane potential (Vm) cause the negatively charged DiSBAC2(3) to redistribute across the plasma membrane and the amount of energy transfer from CC2-DMPE changes accordingly. The changes in fluorescence emission were monitored using VIPR™ II, which is an integrated liquid handler and fluorescent detector designed to conduct cell-based screens in 96- or 384-well microtiter plates.
To identify small molecules that correct the trafficking defect associated with ΔF508-CFTR; a single-addition HTS assay format was developed. The cells were incubated in serum-free medium for 16 hrs at 37° C. in the presence or absence (negative control) of test compound. As a positive control, cells plated in 384-well plates were incubated for 16 hrs at 27° C. to “temperature-correct” […]F508-CFTR. The cells were subsequently rinsed 3× with Krebs Ringers solution and loaded with the voltage-sensitive dyes. To activate […]F508-CFTR, 10 µM forskolin and the CFTR potentiator, genistein (20 µM), were added along with Cl^−-free medium to each well. The addition of Cl^−-free medium promoted Cl^− efflux in response to […]F508-CFTR activation and the resulting membrane depolarization was optically monitored using the FRET-based voltage-sensor dyes.
To identify potentiators of […]F508-CFTR, a double-addition HTS assay format was developed. During the first addition, a Cl^−-free medium with or without test compound was added to each well. After 22 sec, a second addition of Cl^−-free medium containing 2-10 µM forskolin was added to activate […]F508-CFTR. The extracellular Cl^− concentration following both additions was 28 mM, which promoted Cl^− efflux in response to […]F508-CFTR activation and the resulting membrane depolarization was optically monitored using the FRET-based voltage-sensor dyes.
Bath Solution #1: (in mM) NaCl 160, KCl 4.5, CaCl2 2, MgCl2 1, HEPES 10, pH 7.4 with NaOH.
Chloride-free bath solution: Chloride salts in Bath Solution #1 are substituted with gluconate salts.
CC2-DMPE: Prepared as a 10 mM stock solution in DMSO and stored at −20° C.
DiSBAC2(3): Prepared as a 10 mM stock in DMSO and stored at −20° C.
NIH3T3 mouse fibroblasts stably expressing […]F508-CFTR are used for optical measurements of membrane potential. The cells are maintained at 37° C. in 5% CO2 and 90% humidity in Dulbecco's modified Eagle's medium supplemented with 2 mM glutamine, 10% fetal bovine serum, 1× NEAA, […]-ME, 1× pen/strep, and 25 mM HEPES in 175 cm^2 culture flasks. For all optical assays, the cells were seeded at 30,000/well in 384-well matrigel-coated plates and cultured for 2 hrs at 37° C. before culturing at 27° C. for 24 hrs for the potentiator assay. For the correction assays, the cells are cultured at 27° C. or 37° C. with and without compounds for 16-24 hoursB.

T1 sequence (P13569 with tags, fused parts or gaps DEL508-508): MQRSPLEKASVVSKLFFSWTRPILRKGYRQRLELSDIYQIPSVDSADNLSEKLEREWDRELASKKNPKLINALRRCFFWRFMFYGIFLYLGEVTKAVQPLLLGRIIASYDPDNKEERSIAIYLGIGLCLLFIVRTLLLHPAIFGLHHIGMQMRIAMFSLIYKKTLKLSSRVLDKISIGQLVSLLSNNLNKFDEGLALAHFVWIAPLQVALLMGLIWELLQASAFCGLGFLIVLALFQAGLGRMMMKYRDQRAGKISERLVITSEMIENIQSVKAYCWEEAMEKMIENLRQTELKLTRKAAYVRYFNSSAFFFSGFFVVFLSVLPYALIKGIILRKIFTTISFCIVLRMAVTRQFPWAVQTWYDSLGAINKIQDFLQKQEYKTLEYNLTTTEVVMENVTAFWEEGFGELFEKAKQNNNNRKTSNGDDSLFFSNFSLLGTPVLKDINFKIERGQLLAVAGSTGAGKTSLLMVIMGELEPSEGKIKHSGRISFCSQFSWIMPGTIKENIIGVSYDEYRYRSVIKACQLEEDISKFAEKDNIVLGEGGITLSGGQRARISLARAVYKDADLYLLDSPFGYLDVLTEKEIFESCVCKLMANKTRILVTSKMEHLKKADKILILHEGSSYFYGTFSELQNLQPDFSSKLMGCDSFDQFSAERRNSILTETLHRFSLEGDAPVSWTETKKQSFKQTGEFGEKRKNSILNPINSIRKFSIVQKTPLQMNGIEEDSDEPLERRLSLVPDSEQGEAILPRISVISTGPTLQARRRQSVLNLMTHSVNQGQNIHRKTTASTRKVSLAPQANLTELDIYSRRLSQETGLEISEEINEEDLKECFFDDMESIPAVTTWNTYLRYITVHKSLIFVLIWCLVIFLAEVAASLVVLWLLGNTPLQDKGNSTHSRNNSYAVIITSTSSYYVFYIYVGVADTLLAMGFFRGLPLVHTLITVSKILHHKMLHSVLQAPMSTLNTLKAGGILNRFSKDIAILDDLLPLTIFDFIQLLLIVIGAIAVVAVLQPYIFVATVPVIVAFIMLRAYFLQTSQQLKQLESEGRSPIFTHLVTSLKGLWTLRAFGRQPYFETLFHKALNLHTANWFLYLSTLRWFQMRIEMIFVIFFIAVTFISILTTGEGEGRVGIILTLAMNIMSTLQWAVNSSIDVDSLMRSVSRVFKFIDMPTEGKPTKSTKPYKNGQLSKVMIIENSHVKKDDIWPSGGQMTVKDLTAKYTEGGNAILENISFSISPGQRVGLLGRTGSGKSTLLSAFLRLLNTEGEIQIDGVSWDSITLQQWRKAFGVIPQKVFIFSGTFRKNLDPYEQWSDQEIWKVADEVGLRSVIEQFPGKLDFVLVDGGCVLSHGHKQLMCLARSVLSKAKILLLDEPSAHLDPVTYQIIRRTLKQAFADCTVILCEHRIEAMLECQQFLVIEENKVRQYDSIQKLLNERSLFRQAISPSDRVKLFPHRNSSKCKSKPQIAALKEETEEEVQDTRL

CCCN(CC1CC1)c1nc(C(N)=O)cc(-c2cccc(OC)c2)n1 [Compound 89]
Efficacy: +++ (+++ corresponds to Efficacy greater than 100)
EC50: 1 to 5 µM

COc1ccccc1-c1cc(C(N)=O)nc(N(CCO)CCO)n1 [Compound 90]
Efficacy: + (+ corresponds to Efficacy less than 50)
EC50: > 5 µM

CCNC(=O)c1cc(-c2ccccc2)nc(N(CC)CC)n1 [Compound 91]
Efficacy: +++ (+++ corresponds to Efficacy greater than 100)
EC50: 1 to 5 µM

NC(=O)c1cc(-c2ccccc2)nc(N(Cc2ccccc2)Cc2ccccc2)n1 [Compound 92]
Efficacy: ++ (++ corresponds to Efficacy between 100 and 50)
EC50: 1 to 5 µM

O=C(c1cc(-c2ccccc2)nc(N2CC=CC2)n1)N1CC=CC1 [Compound 93]
Efficacy: ++ (++ corresponds to Efficacy between 100 and 50)
EC50: > 5 µM

CCN(CC)c1nc(C(N)=O)cc(-c2ccccc2F)n1 [Compound 94]
Efficacy: +++ (+++ corresponds to Efficacy greater than 100)
EC50: 1 to 5 µM

NC(=O)c1cc(-c2cccc(Cl)c2Cl)nc(N2CCCCC2)n1 [Compound 95]
Efficacy: ++ (++ corresponds to Efficacy between 100 and 50)
EC50: 1 to 5 µM

NC(=O)c1cc(-c2ccccc2)nc(N2CCC(O)(c3cccc(C(F)(F)F)c3)CC2)n1 [Compound 96]
Efficacy: ++ (++ corresponds to Efficacy between 100 and 50)
EC50: > 5 µM

CCN(CC)c1nc(C(=O)NCc2ccccc2)cc(-c2ccccc2)n1 [Compound 97]
Efficacy: ++ (++ corresponds to Efficacy between 100 and 50)
EC50: > 5 µM

CCN(CC)c1nc(C(N)=O)cc(-c2cccc(Cl)c2)n1 [Compound 98]
Efficacy: +++ (+++ corresponds to Efficacy greater than 100)
EC50: < 1 µM

CCOC(=O)C1CCN(c2nc(C(N)=O)cc(-c3ccccc3)n2)CC1 [Compound 99]
Efficacy: + (+ corresponds to Efficacy less than 50)
EC50: 1 to 5 µM

CCCN(CCO)c1nc(C(N)=O)cc(-c2ccccc2)n1 [Compound 100]
Efficacy: ++ (++ corresponds to Efficacy between 100 and 50)
EC50: 1 to 5 µM

CN(CC(O)c1ccccc1)c1nc(C(N)=O)cc(-c2ccccc2)n1 (centres unmarked) [Compound 101]
Efficacy: +++ (+++ corresponds to Efficacy greater than 100)
EC50: > 5 µM

CCNc1nc(C(N)=O)cc(-c2ccc(OC)cc2)n1 [Compound 102]
Efficacy: ++ (++ corresponds to Efficacy between 100 and 50)
EC50: > 5 µM

CNC(=O)c1cc(-c2ccccc2)nc(NC)n1 [Compound 103]
Efficacy: + (+ corresponds to Efficacy less than 50)
EC50: < 1 µM

CC(C)CCN(CCC(C)C)c1nc(C(N)=O)cc(-c2ccccc2)n1 [Compound 104]
Efficacy: + (+ corresponds to Efficacy less than 50)
EC50: 1 to 5 µM

COc1cccc(-c2cc(C(N)=O)nc(N3CCCCC3)n2)c1F [Compound 105]
Efficacy: +++ (+++ corresponds to Efficacy greater than 100)
EC50: > 5 µM

NC(=O)c1cc(-c2ccc(Cl)cc2Cl)nc(N2CCCCC2)n1 [Compound 106]
Efficacy: +++ (+++ corresponds to Efficacy greater than 100)
EC50: 1 to 5 µM

CCN(CC)c1nc(C(N)=O)cc(-c2ccc(F)cc2F)n1 [Compound 107]
Efficacy: ++ (++ corresponds to Efficacy between 100 and 50)
EC50: < 1 µM

CCN(CC)c1nc(C(N)=O)cc(-c2c(OC)cccc2OC)n1 [Compound 108]
Efficacy: ++ (++ corresponds to Efficacy between 100 and 50)
EC50: > 5 µM

CCN(CC)c1nc(C(N)=O)cc(-c2ccc(OC)cc2)n1 [Compound 109]
Efficacy: +++ (+++ corresponds to Efficacy greater than 100)
EC50: < 1 µM

CCN(CC)c1nc(C(N)=O)cc(-c2ccccc2OC)n1 [Compound 110]
Efficacy: +++ (+++ corresponds to Efficacy greater than 100)
EC50: < 1 µM

N#Cc1cccc(-c2cc(C(N)=O)nc(N3CCCCC3)n2)c1 [Compound 111]
Efficacy: ++ (++ corresponds to Efficacy between 100 and 50)
EC50: > 5 µM

NC(=O)c1cc(-c2ccccc2)nc(NC2CCCC2)n1 [Compound 112]
Efficacy: + (+ corresponds to Efficacy less than 50)
EC50: > 5 µM

CC1CC(C)CN(c2nc(C(N)=O)cc(-c3ccccc3)n2)C1 (centres unmarked) [Compound 113]
Efficacy: ++ (++ corresponds to Efficacy between 100 and 50)
EC50: 1 to 5 µM

Cc1ccccc1-c1cc(C(N)=O)nc(N2CCCCC2)n1 [Compound 114]
Efficacy: +++ (+++ corresponds to Efficacy greater than 100)
EC50: 1 to 5 µM

COc1ccc(Cl)cc1-c1cc(C(N)=O)nc(N2CCCCC2)n1 [Compound 115]
Efficacy: ++ (++ corresponds to Efficacy between 100 and 50)
EC50: 1 to 5 µM

CCc1ccc(-c2cc(C(N)=O)nc(N(CC)CC)n2)cc1 [Compound 116]
Efficacy: +++ (+++ corresponds to Efficacy greater than 100)
EC50: 1 to 5 µM

CCN(CC)c1nc(C(=O)N(C)C)cc(-c2ccccc2)n1 [Compound 117]
Efficacy: +++ (+++ corresponds to Efficacy greater than 100)
EC50: > 5 µM

CCCCN(CCC)c1nc(C(N)=O)cc(-c2ccccc2)n1 [Compound 118]
Efficacy: ++ (++ corresponds to Efficacy between 100 and 50)
EC50: < 1 µM

CCN(CC)c1nc(C(N)=O)cc(-c2ccccc2)n1 [Compound 119]
Efficacy: +++ (+++ corresponds to Efficacy greater than 100)
EC50: < 1 µM

CCN(CC)c1nc(C(N)=O)cc(-c2cccc(C)c2C)n1 [Compound 120]
Efficacy: ++ (++ corresponds to Efficacy between 100 and 50)
EC50: < 1 µM

CCCCN(CC)c1nc(C(N)=O)cc(-c2ccccc2)n1 [Compound 121]
Efficacy: +++ (+++ corresponds to Efficacy greater than 100)
EC50: 1 to 5 µM

NC(=O)c1cc(-c2cccc(F)c2)nc(N2CCCCC2)n1 [Compound 122]
Efficacy: +++ (+++ corresponds to Efficacy greater than 100)
EC50: > 5 µM

CCN(CCO)c1nc(C(N)=O)cc(-c2cccc(OC)c2)n1 [Compound 123]
Efficacy: + (+ corresponds to Efficacy less than 50)
EC50: > 5 µM

COc1ccc(-c2cc(C(N)=O)nc(N3CCCCC3)n2)cc1OC [Compound 124]
Efficacy: +++ (+++ corresponds to Efficacy greater than 100)
EC50: 1 to 5 µM

CCN(CC)c1nc(C(N)=O)cc(-c2c(F)cccc2F)n1 [Compound 125]
Efficacy: ++ (++ corresponds to Efficacy between 100 and 50)
EC50: < 1 µM

NC(=O)c1cc(-c2ccccc2)nc(NCc2ccccc2)n1 [Compound 126]
Efficacy: ++ (++ corresponds to Efficacy between 100 and 50)
EC50: > 5 µM

CCOc1ccccc1-c1cc(C(N)=O)nc(N2CCCCC2)n1 [Compound 127]
Efficacy: ++ (++ corresponds to Efficacy between 100 and 50)
EC50: 1 to 5 µM

CN(C)C(=O)c1cc(-c2ccccc2)nc(NCc2ccco2)n1 [Compound 128]
Efficacy: + (+ corresponds to Efficacy less than 50)
EC50: > 5 µM

COc1ccc(-c2cc(C(N)=O)nc(N3CC=CCC3)n2)cc1 [Compound 129]
Efficacy: ++ (++ corresponds to Efficacy between 100 and 50)
EC50: > 5 µM

N#Cc1ccc(-c2cc(C(N)=O)nc(N3CCCCC3)n2)cc1 [Compound 130]
Efficacy: + (+ corresponds to Efficacy less than 50)
EC50: > 5 µM

CCN(CC)c1nc(C(N)=O)cc(-c2ccc(F)c(C)c2)n1 [Compound 131]
Efficacy: +++ (+++ corresponds to Efficacy greater than 100)
EC50: 1 to 5 µM
